Literature values as cited in patent US5210089A, “D-rhamnono-1,5-lactone” (Monsanto Company, priority 1992, dated 1993).

Molecular target: T1, Lysosomal α-mannosidase (Homo sapiens, UniProt O00754)
T1 sequence (O00754 50-1011): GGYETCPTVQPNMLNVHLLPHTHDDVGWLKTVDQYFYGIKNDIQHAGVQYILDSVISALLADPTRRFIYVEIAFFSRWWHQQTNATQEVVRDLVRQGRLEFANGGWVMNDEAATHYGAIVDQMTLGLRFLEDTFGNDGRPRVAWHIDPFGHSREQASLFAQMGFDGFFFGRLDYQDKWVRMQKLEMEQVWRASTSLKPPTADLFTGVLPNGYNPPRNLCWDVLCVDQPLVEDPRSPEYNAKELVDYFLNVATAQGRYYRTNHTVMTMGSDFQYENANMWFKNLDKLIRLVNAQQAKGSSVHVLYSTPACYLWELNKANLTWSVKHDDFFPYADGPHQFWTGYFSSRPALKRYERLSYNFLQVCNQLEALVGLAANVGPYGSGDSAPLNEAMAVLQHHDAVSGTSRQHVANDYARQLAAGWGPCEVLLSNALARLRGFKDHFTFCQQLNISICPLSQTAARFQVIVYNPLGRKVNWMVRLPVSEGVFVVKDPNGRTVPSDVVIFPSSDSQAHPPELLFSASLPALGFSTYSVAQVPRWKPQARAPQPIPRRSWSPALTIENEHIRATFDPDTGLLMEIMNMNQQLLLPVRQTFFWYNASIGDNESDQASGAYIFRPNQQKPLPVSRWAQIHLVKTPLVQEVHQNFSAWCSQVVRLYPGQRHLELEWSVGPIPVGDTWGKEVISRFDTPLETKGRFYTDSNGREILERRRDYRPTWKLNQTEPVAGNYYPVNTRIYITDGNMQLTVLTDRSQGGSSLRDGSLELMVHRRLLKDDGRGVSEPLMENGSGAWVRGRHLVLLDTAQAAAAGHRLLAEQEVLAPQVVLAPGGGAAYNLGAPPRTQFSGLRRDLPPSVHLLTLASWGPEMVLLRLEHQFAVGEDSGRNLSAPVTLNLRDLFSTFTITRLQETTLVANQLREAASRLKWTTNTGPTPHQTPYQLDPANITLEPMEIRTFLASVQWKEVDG
Settings: literature; cited from earlier work

Compound: O=C1N[C@H](CO)[C@@H](O)[C@H](O)[C@@H]1O [Mannono-1,5-lactam (2), D-mannonolactam]
- Inhibition of human lysosomal α-mannosidase (in words): powerful inhibitor
